Assay results as given in US20050008851A1, “Biosensor” (FUJI PHOTO FILM CO., LTD., priority 2003, published 2005).

Conditions: water at 20° C.

SMILES	solubility in water [% by weight]
C=C(C)C(=O)OCCCC [butyl methacrylate]	0.03
C=C(C)C(=O)OC [methyl methacrylate]	1.35
C=Cc1ccccc1 [styrene]	0.03
